Measured values taken from ChEMBL document CHEMBL4251634, “Synthesis and antimicrobial activity of pyrimidinyl 1,3,4-oxadiazoles, 1,3,4-thiadiazoles and 1,2,4-triazoles” (2018).

Legend:
Format in all cases: functional
[1] = test system: Staphylococcus aureus; experiment: Antibacterial activity against Staphylococcus aureus assessed as diameter of inhibition zone at 12.5 ug/well after 24 hrs by agar well diffusion method; settings: read-out: DIZ
[2] = test system: Staphylococcus aureus; experiment: Antibacterial activity against Staphylococcus aureus assessed as diameter of inhibition zone at 25 ug/well after 24 hrs by agar well diffusion method; settings: read-out: DIZ
[3] = test system: Staphylococcus aureus; experiment: Antibacterial activity against Staphylococcus aureus assessed as diameter of inhibition zone at 50 ug/well after 24 hrs by agar well diffusion method; settings: read-out: DIZ
[4] = test system: Staphylococcus aureus; experiment: Antibacterial activity against Staphylococcus aureus assessed as diameter of inhibition zone at 100 ug/well after 24 hrs by agar well diffusion method; settings: read-out: DIZ
[5] = test system: Bacillus subtilis; experiment: Antibacterial activity against Bacillus subtilis assessed as diameter of inhibition zone at 12.5 ug/well after 24 hrs by agar well diffusion method; settings: read-out: DIZ
[6] = test system: Bacillus subtilis; experiment: Antibacterial activity against Bacillus subtilis assessed as diameter of inhibition zone at 25 ug/well after 24 hrs by agar well diffusion method; settings: read-out: DIZ
[7] = test system: Bacillus subtilis; experiment: Antibacterial activity against Bacillus subtilis assessed as diameter of inhibition zone at 50 ug/well after 24 hrs by agar well diffusion method; settings: read-out: DIZ
[8] = test system: Bacillus subtilis; experiment: Antibacterial activity against Bacillus subtilis assessed as diameter of inhibition zone at 100 ug/well after 24 hrs by agar well diffusion method; settings: read-out: DIZ
[9] = test system: Pseudomonas aeruginosa; experiment: Antibacterial activity against Pseudomonas aeruginosa assessed as diameter of inhibition zone at 12.5 ug/well after 24 hrs by agar well diffusion method; settings: read-out: DIZ
[10] = test system: Pseudomonas aeruginosa; experiment: Antibacterial activity against Pseudomonas aeruginosa assessed as diameter of inhibition zone at 25 ug/well after 24 hrs by agar well diffusion method; settings: read-out: DIZ
[11] = test system: Pseudomonas aeruginosa; experiment: Antibacterial activity against Pseudomonas aeruginosa assessed as diameter of inhibition zone at 50 ug/well after 24 hrs by agar well diffusion method; settings: read-out: DIZ
[12] = test system: Pseudomonas aeruginosa; experiment: Antibacterial activity against Pseudomonas aeruginosa assessed as diameter of inhibition zone at 100 ug/well after 24 hrs by agar well diffusion method; settings: read-out: DIZ
[13] = test system: Klebsiella pneumoniae; experiment: Antibacterial activity against Klebsiella pneumoniae assessed as diameter of inhibition zone at 12.5 ug/well after 24 hrs by agar well diffusion method; settings: read-out: DIZ
[14] = test system: Klebsiella pneumoniae; experiment: Antibacterial activity against Klebsiella pneumoniae assessed as diameter of inhibition zone at 25 ug/well after 24 hrs by agar well diffusion method; settings: read-out: DIZ
[15] = test system: Klebsiella pneumoniae; experiment: Antibacterial activity against Klebsiella pneumoniae assessed as diameter of inhibition zone at 50 ug/well after 24 hrs by agar well diffusion method; settings: read-out: DIZ
[16] = test system: Klebsiella pneumoniae; experiment: Antibacterial activity against Klebsiella pneumoniae assessed as diameter of inhibition zone at 100 ug/well after 24 hrs by agar well diffusion method; settings: read-out: DIZ
[17] = test system: Aspergillus niger; experiment: Antifungal activity against Aspergillus niger assessed as diameter of inhibition zone at 12.5 ug/well after 48 hrs by agar well diffusion method; settings: read-out: DIZ
[18] = test system: Aspergillus niger; experiment: Antifungal activity against Aspergillus niger assessed as diameter of inhibition zone at 25 ug/well after 48 hrs by agar well diffusion method; settings: read-out: DIZ
[19] = test system: Aspergillus niger; experiment: Antifungal activity against Aspergillus niger assessed as diameter of inhibition zone at 50 ug/well after 48 hrs by agar well diffusion method; settings: read-out: DIZ
[20] = test system: Aspergillus niger; experiment: Antifungal activity against Aspergillus niger assessed as diameter of inhibition zone at 100 ug/well after 48 hrs by agar well diffusion method; settings: read-out: DIZ
[21] = test system: Penicillium chrysogenum; experiment: Antifungal activity against Penicillium chrysogenum assessed as diameter of inhibition zone at 12.5 ug/well after 48 hrs by agar well diffusion method; settings: read-out: DIZ
[22] = test system: Penicillium chrysogenum; experiment: Antifungal activity against Penicillium chrysogenum assessed as diameter of inhibition zone at 25 ug/well after 48 hrs by agar well diffusion method; settings: read-out: DIZ
[23] = test system: Penicillium chrysogenum; experiment: Antifungal activity against Penicillium chrysogenum assessed as diameter of inhibition zone at 50 ug/well after 48 hrs by agar well diffusion method; settings: read-out: DIZ
[24] = test system: Penicillium chrysogenum; experiment: Antifungal activity against Penicillium chrysogenum assessed as diameter of inhibition zone at 100 ug/well after 48 hrs by agar well diffusion method; settings: read-out: DIZ
[25] = test system: Staphylococcus aureus; experiment: Antibacterial activity against Staphylococcus aureus after 24 hrs by turbidity-based broth dilution assay
[26] = test system: Pseudomonas aeruginosa; experiment: Antibacterial activity against Pseudomonas aeruginosa after 24 hrs by turbidity-based broth dilution assay
[27] = test system: Klebsiella pneumoniae; experiment: Antibacterial activity against Klebsiella pneumoniae after 24 hrs by turbidity-based broth dilution assay
[28] = test system: Aspergillus niger; experiment: Antifungal activity against Aspergillus niger after 48 hrs by turbidity-based broth dilution assay
[29] = test system: Penicillium chrysogenum; experiment: Antifungal activity against Penicillium chrysogenum after 48 hrs by turbidity-based broth dilution assay
[30] = test system: Staphylococcus aureus; experiment: Bactericidal activity against Staphylococcus aureus incubated for 24 hrs followed by regrowth on sterile nutrient broth for 24 hrs
[31] = test system: Bacillus subtilis; experiment: Bactericidal activity against Bacillus subtilis incubated for 24 hrs followed by regrowth on sterile nutrient broth for 24 hrs; parameters: unit not given here
[32] = test system: Pseudomonas aeruginosa; experiment: Bactericidal activity against Pseudomonas aeruginosa incubated for 24 hrs followed by regrowth on sterile nutrient broth for 24 hrs
[33] = test system: Klebsiella pneumoniae; experiment: Bactericidal activity against Klebsiella pneumoniae incubated for 24 hrs followed by regrowth on sterile nutrient broth for 24 hrs
[34] = test system: Aspergillus niger; experiment: Fungicidal activity against Aspergillus niger incubated for 48 hrs followed by regrowth on PDA plates for 48 hrs
[35] = test system: Penicillium chrysogenum; experiment: Fungicidal activity against Penicillium chrysogenum incubated for 48 hrs followed by regrowth on PDA plates for 48 hrs
[36] = test system: Aspergillus niger; experiment: Ratio of MFC to MIC for Aspergillus niger
[37] = test system: Pseudomonas aeruginosa; experiment: Ratio of MBC to MIC for Pseudomonas aeruginosa

| Structure (SMILES) | zone of inhibition at 12.5 µg/disc [1] | zone of inhibition at 25 µg/disc [2] | zone of inhibition at 50 µg/disc [3] | zone of inhibition at 100 µg/disc [4] | zone of inhibition at 12.5 µg/disc [5] | zone of inhibition at 25 µg/disc [6] | zone of inhibition at 50 µg/disc [7] | zone of inhibition at 100 µg/disc [8] | zone of inhibition at 12.5 µg/disc [9] | zone of inhibition at 25 µg/disc [10] | zone of inhibition at 50 µg/disc [11] | zone of inhibition at 100 µg/disc [12] | zone of inhibition at 12.5 µg/disc [13] | zone of inhibition at 25 µg/disc [14] | zone of inhibition at 50 µg/disc [15] | zone of inhibition at 100 µg/disc [16] | zone of inhibition at 12.5 µg/disc [17] | zone of inhibition at 25 µg/disc [18] | zone of inhibition at 50 µg/disc [19] | zone of inhibition at 100 µg/disc [20] | also measured |
| --- | --- | --- | --- | --- | --- | --- | --- | --- | --- | --- | --- | --- | --- | --- | --- | --- | --- | --- | --- | --- | --- |
| Cc1cc(SCc2nnc(-c3ccc(Cl)cc3)n2N)nc(SCc2nnc(-c3ccc(Cl)cc3)n2N)n1 | 10 mm | 11 mm | 13 mm | 15 mm | 16 mm | 18 mm | 20 mm | 24 mm | 18 mm | 21 mm | 24 mm | 27 mm | 22 mm | 24 mm | 26 mm | 29 mm | 32 mm | 33 mm | 35 mm | 38 mm | zone of inhibition at 12.5 µg/disc [21]: 21 mm; zone of inhibition at 25 µg/disc [22]: 23 mm; zone of inhibition at 50 µg/disc [23]: 25 mm; zone of inhibition at 100 µg/disc [24]: 29 mm; MIC [25]: 100 µg; MIC [26]: 25 µg; MIC [27]: 25 µg; MIC [28]: 6.25 µg; MIC [29]: 25 µg; MBC [30]: >200 µg; MBC [31]: 200; MBC [32]: 100 µg; MBC [33]: 100 µg; MFC [34]: 12.5 µg; MFC [35]: 100 µg; Ratio [36]: 2 |
| Cc1cc(SCc2nnc(-c3ccc([N+](=O)[O-])cc3)n2N)nc(SCc2nnc(-c3ccc([N+](=O)[O-])cc3)n2N)n1 | 13 mm | 15 mm | 17 mm | 19 mm | 18 mm | 20 mm | 22 mm | 26 mm | 23 mm | 26 mm | 28 mm | 31 mm | 25 mm | 27 mm | 29 mm | 32 mm | 33 mm | 35 mm | 37 mm | 40 mm | zone of inhibition at 12.5 µg/disc [21]: 23 mm; zone of inhibition at 25 µg/disc [22]: 25 mm; zone of inhibition at 50 µg/disc [23]: 27 mm; zone of inhibition at 100 µg/disc [24]: 31 mm; MIC [25]: 100 µg; MIC [26]: 12.5 µg; MIC [27]: 25 µg; MIC [28]: 6.25 µg; MIC [29]: 25 µg; MBC [30]: >200 µg; MBC [31]: 200; MBC [32]: 50 µg; MBC [33]: 100 µg; MFC [34]: 12.5 µg; MFC [35]: 100 µg; Ratio [36]: 2 |
| Cc1cc(SCc2nnc(-c3ccc(Cl)cc3)s2)nc(SCc2nnc(-c3ccc(Cl)cc3)s2)n1 | 15 mm | 17 mm | 19 mm | 21 mm | 21 mm | 23 mm | 26 mm | 29 mm | 26 mm | 29 mm | 32 mm | 34 mm | 28 mm | 30 mm | 32 mm | 35 mm | 24 mm | 26 mm | 28 mm | 31 mm | zone of inhibition at 12.5 µg/disc [21]: 15 mm; zone of inhibition at 25 µg/disc [22]: 17 mm; zone of inhibition at 50 µg/disc [23]: 19 mm; zone of inhibition at 100 µg/disc [24]: 22 mm; MIC [25]: 50 µg; MIC [26]: 6.25 µg; MIC [27]: 12.5 µg; MIC [28]: 12.5 µg; MIC [29]: 50 µg; MBC [30]: 200 µg; MBC [31]: 100; MBC [32]: 12.5 µg; MBC [33]: 50 µg; MFC [34]: 50 µg; MFC [35]: 200 µg; Ratio [37]: 2 |
